Experiments:
[1] = system: interleukin-6 (IL-6); experiment: TPA-induced IL-6 production in peritoneal macrophage (ELISA); assay type: cell-based; conditions: mouse peritoneal macrophage, final concentrations 20 μM and 10 μM, 14 hours, IL-6 in culture supernatant by ELISA
Method: Four milliliters of a 10% fetal bovine serum-containing RPMI 1640 medium (manufactured by Bio Whittaker, 12-702F) was intraperitoneally injected to ddy mouse (Nippon SLC, female, 7-weeks old), and the mouse was well massaged, and the medium was taken out to obtain peritoneal cells. The peritoneal cells were suspended in the 10% fetal bovine serum-containing RPMI 1640 medium so as to have a concentration of 10^6 cells/ml, and dispensed into 48-well microtiter plate in a volume of 500 μl each. The peritoneal cells were cultured at 37° C. for 2 hours in the presence of 5% CO2 gas. Thereafter, the culture supernatant was removed to give adherent cells to be used as peritoneal macrophage. To each well was freshly dispensed a Dulbecco's modified Eagle's medium (manufactured by Bio Whittaker; 12-917F) without phenol red containing 10% fetal bovine serum and 2 mM L-glutamine in a volume of 500 μl. […] The content of interleukin-6 (IL-6) in the culture supernatant was assayed by enzyme immuno-sandwich assay (ELISA: Matched antibody Pair SamplePak mouse IL-6, manufactured by Endogen). Here, the group with no addition of DGE and TPA aqueous solution (control) was set as a negative control, and the group with addition of TPA aqueous solution alone (control+TPA) was set as a positive control. In addition, all of the assays were carried out twice.

[2] = system: HO1 protein; experiment: HO1 protein induction in RAW 264.7 cells (Western blot); assay type: cell-based; design: key to Intensity of Bands of HO1 Protein: those showing no bands are indicated by “−,”; the intensities of the bands are indicated by +−, +, ++ in the ascending order of the intensities of the bands; the intensities of the bands are indicated by +−, +, ++ in the ascending order of the intensities of the bands; the intensities of the bands are indicated by +−, +, ++ in the ascending order of the intensities of the bands; conditions: 15 hours
Method: RAW 264.7 cells (ATCC TIB 71) were suspended in a Dulbecco's modified Eagle's medium (manufactured by Bio Whittaker; 12-604F) containing 10% fetal bovine serum (manufactured by Gibco), so as to have a concentration of 3×10^5 cells/ml. The cell suspension was added to each well of a 6-well microtiter plate in a volume of 5 ml each. The cells were cultured at 37° C. in the presence of 5% CO2 gas overnight. To each well was added 50 μl of 4 mM, 2 mM or 1 mM DGE aqueous solution (each of final concentrations: 40 μM, 20 μM or 10 μM), and the cells were cultured for 15 hours. […] The cells were harvested by peeling off the cells from the plate with a scraper. The harvested cells were suspended in 0.1 M Tris-HCl buffer (pH 7.5) containing 0.05 mM pepstatin (manufactured by Sigma, P5318), 0.2 mM leupeptin (manufactured by Sigma, L2884), 1 mM phenylmethylsulfonyl fluoride (manufactured by nakalai tesque, 273-27), 10 mM disodium dihydrogenethylenediaminetetraacetate and 0.1% Triton X-100, and subjected to freezing and thawing once. Thereafter, the supernatant obtained by centrifugation was used as a protein fraction. The protein content in the protein fraction was assayed by Micro BCA Protein Assay Reagent (one manufactured by Pierce sold by Takara Shuzo Co., Ltd., P7411). Each of the resulting protein fraction samples was mixed with an equal volume of 0.125 M Tris-HCl buffer (pH 6.8) containing 4% sodium lauryl sulfate (SDS), 2% 2-mercaptoethanol,
0.001% Bromophenol Blue and 20% glycerol, and the mixture was treated at 100° C. for 5 minutes. A mixture containing a protein in an amount of 10 μg or so was loaded on 12.5% SDS-polyacrylamide gel, and electrophoresed with a constant current of 20 mA. In a blotting buffer containing 48 mM Tris, 39 mM glycine, 20% methanol, 0.0375% SDS, the gel after the electrophoresis was transferred to a PDVF membrane (manufactured by Millipore Corporation, IPVHOOO 10) in accordance with the attached protocol, using transblot SD cell semi-drive blotting device (manufactured by BioRad), at a constant voltage of 15 V for 25 minutes. The transferred PVDF membrane was blocked overnight in a Block Ace (manufactured by DAINIPPON PHARMACEUTICAL CO., LTD., UK-B25) solution at 4° C. The blocked membrane was washed for 15 minutes thrice with phosphate-buffered physiological saline containing 0.1% Tween 20 under gentle shaking. Thereafter, the membrane was subjected to the reaction under gentle shaking in phosphate-buffered physiological saline containing 10% Block Ace with a 200 ng/ml anti-HOl antibody (N-19, manufactured by Santa Cruz, sc-7696) and 0.1% Tween 20 at room temperature for 1 hour, and was washed for 15 minutes thrice with phosphate-buffered physiological saline containing 0.1% Tween 20 under gentle shaking. Next, the membrane was subjected to the reaction under gentle shaking in phosphate-buffered physiological saline with 10% Block Ace with 0.1% peroxidase-conjugated rabbit anti-goat IgG (H+L) antibody (manufactured by Zymed, 61-1620) and 0.1% Tween 20 at room temperature for 1 hour, and was washed for 15 minutes five times with phosphate-buffered physiological saline containing 0.1% Tween 20 under gentle shaking. Subsequently, a PVDF membrane was stained by using Western blot Chemiluminescence Reagent Plus (one manufactured by NEN Life Science Products sold by Daiichikagaku, NEL103) in accordance with the attached protocol, and sensitized on an X-ray film (manufactured by Kodak, CAT 1651454). The sensitized film was developed with FPM800 (manufactured by Fuji Photo Film Co., Ltd.).
As a result, there could be confirmed a band ascribed to HO1 protein in the group with addition of DGE. […] In the table, + symbols were given in accordance with the intensity of the band for HO1 protein. In other words, in Table 3, those showing no bands are indicated by “−,” and the intensities of the bands are indicated by +−, +, ++ in the ascending order of the intensities of the bands.

O=C1C=CC(CO)OC1O [DGE, L-glycero-1,5-epoxy-1αβ,6-dihydroxy-cis-hex-3-en-2-one]
inhibition of TPA-induced IL-6 production [1]: inhibition of TPA-induced IL-6 production was found DGE-concentration dependently
induction action for HO production (band ascribed to HO1 protein) ([2]; DGE at 10 to 40 μM): DGE concentration-dependent
Intensity of Bands of HO1 Protein ([2]; final concentration 10 μM): +−
Intensity of Bands of HO1 Protein ([2]; final concentration 20 μM): +
Intensity of Bands of HO1 Protein ([2]; final concentration 40 μM): ++
